Laboratory results reported in patent US20260285880A1, “SUBSTITUTED DIHYDROTHIENOPYRIMIDINE COMPOUND, PREPARATION METHOD THEREFOR, AND USE THEREOF” (SHANGHAI YIDI BIOTECHNOLOGY CO., LTD., priority 2023, published 2026).
Like-named read-outs stand apart in the source and are kept apart here.

Experiments:
PDE4B2 = PDE4B2 (Homo sapiens, UniProt Q07343); conditions: for IC50: read-out: PDE4B2 IC50, enzyme assay
Flpin-293-PDE4B2 cells = Flpin-293-PDE4B2 cells (Homo sapiens, UniProt Q07343); assay: cell-based
[1] = read-out: Cell Inhibition % @1 nM, 1 nM, Flpin-293-PDE4B2 cells
[2] = read-out: Cell Inhibition % @10 nM, 10 nM, Flpin-293-PDE4B2 cells
[3] = read-out: Cell Inhibition % @100 nM, 100 nM, Flpin-293-PDE4B2 cells

Sequence of PDE4B2 (Q07343 1-564 isoform Q07343-2, species assumed): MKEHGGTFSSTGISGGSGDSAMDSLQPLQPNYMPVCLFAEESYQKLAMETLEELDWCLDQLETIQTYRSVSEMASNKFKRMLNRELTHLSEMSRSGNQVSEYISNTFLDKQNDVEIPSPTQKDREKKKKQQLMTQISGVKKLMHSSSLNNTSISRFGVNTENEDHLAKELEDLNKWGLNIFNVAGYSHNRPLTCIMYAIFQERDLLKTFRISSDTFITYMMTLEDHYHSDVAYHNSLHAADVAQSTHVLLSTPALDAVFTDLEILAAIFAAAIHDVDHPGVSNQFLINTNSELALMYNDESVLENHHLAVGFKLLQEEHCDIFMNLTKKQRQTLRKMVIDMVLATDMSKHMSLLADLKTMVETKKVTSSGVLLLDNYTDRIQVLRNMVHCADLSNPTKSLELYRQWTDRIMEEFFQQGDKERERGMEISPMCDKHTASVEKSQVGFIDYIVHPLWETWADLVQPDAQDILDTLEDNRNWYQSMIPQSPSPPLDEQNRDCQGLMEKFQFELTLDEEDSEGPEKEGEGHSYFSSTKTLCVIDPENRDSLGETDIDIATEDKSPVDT
Sequence of Flpin-293-PDE4B2 cells (Q07343 1-564 isoform Q07343-2): as the sequence (Q07343 1-564 isoform Q07343-2, species assumed) above

Compound | inhibition at 0.001 µM (Flpin-293-PDE4B2 cells; [1]) | inhibition at 0.01 µM (Flpin-293-PDE4B2 cells; [2]) | inhibition at 0.1 µM (Flpin-293-PDE4B2 cells; [3]) | also measured
(R)-4-((1-(hydroxymethyl)cyclobutyl)amino)-2-(6-(1-methyl-2,5-dihydro-1H-pyrrol-3-yl)-3,4-dihydroisoquinolin-2(1H)-yl)-6,7-dihydrothieno[3,2-d]pyrimidine 5-oxide [Compound 169] | – | – | – | PDE4B2 Enzyme Inhibition % @10 nM (PDE4B2; 10 nM): 20.43%; PDE4B2 Enzyme Inhibition % @100 nM (PDE4B2; 100 nM): 78.77%
CN1C[C@H]2C[C@@H]1CN2c1ccc2c(c1)CCN(c1nc3c(c(NC4(CO)CCC4)n1)[S+]([O-])CC3)C2 (some centres unmarked) [Compound 155] | 12% | 46.8% | 76.1% | IC50 (PDE4B2): 0.692 nM
O=C(O)Cc1ccc(Nc2nc(N3CCc4cc(Cl)ccc4C3)nc3c2[S@+]([O-])CC3)cc1 [Compound 129] | 6.93% | 39.6% | 72.2% | –
Cn1cnc(-c2ccc3c(c2)CCN(c2nc4c(c(NC5(CO)CCC5)n2)[S+]([O-])CC4)C3)n1 (centres unmarked) [Compound 94] | 34.8% | 94.1% | 100% | –
Cc1ccc2c(c1)OC[C@H]1CN(c3nc4c(c(NC5(CO)CCC5)n3)[S+]([O-])CC4)CC[C@H]21 (some centres unmarked) [Compound 112] | 12.3% | 54.1% | 99.4% | –
[O-][S+]1CCc2nc(N3CCc4cc(F)c(F)cc4C3)nc(NC3(CO)CCC3)c21 (centres unmarked) [Compound 95] | -4.2% | 6.8% | 66.7% | –
[O-][S+]1CCc2nc(N3CC[C@H]4c5ccc(Cl)cc5OC[C@H]4C3)nc(NC3(CO)CCC3)c21 (some centres unmarked) [Compound 116] | 2.17% | 16.9% | 73.4% | –
COc1nc2c(c3ccc(Cl)cc13)CCN(c1nc3c(c(NC4(CO)CCC4)n1)[S+]([O-])CC3)C2 (centres unmarked) [Compound 99] | 4.18% | 43.7% | 96.5% | –
[O-][S+]1CCc2nc(N3CCc4cc(N5CCCC5)ncc4C3)nc(NC3(CO)CCC3)c21 (centres unmarked) [Compound 183] | 12.8% | 78.5% | 99.9% | IC50 (PDE4B2): 0.413 nM
C[C@H]1c2ccc(N3CCCC3)cc2CCN1c1nc2c(c(Nc3cnn(C4CN(C)C4)c3)n1)[S+]([O-])CC2 (some centres unmarked) [Compound 209] | 4.48% | 9.75% | 61.7% | –
C[C@H]1c2ccc(N3CCCC3)cc2CCN1c1nc2c(c(NC3CCOCC3)n1)[S+]([O-])CC2 (some centres unmarked) [Compound 205] | 28.5% | 92.4% | 101% | –
[O-][S+]1CCc2nc(N3CC[C@@H]4c5ccc(F)cc5OC[C@H]4C3)nc(NC3(CO)CCC3)c21 (some centres unmarked) [Compound 109] | 17.7% | 65.4% | 97.8% | –
C[C@H]1c2ccc(N3CCCC3)cc2CCN1c1nc2c(c(NC3CS(=O)(=O)C3)n1)[S+]([O-])CC2 (some centres unmarked) [Compound 204] | 23.1% | 87.2% | 100% | –
[O-][S+]1CCc2nc(N3CCc4c(ncc5cc(Cl)ccc45)C3)nc(NC3(CO)CCC3)c21 (centres unmarked) [Compound 100] | 6% | 47.7% | 97.3% | –
COC[C@H]1CCCN1c1ccc2c(c1)CCN(c1nc3c(c(NC4(CO)CCC4)n1)[S+]([O-])CC3)C2 (some centres unmarked) [Compound 146] | 14.8% | 85.1% | 101% | –
Cn1ccc(-c2ccc3c(c2)CCN(c2nc4c(c(NC5(CO)CCC5)n2)[S+]([O-])CC4)C3)n1 (centres unmarked) [Compound 77] | 61% | 99.4% | 101% | –
C[C@H]1c2ccc(N3CCCC3)cc2CCN1c1nc2c(c(Nc3ncnn3C)n1)[S+]([O-])CC2 (some centres unmarked) [Compound 217] | 2.48% | 25% | 84.5% | –

Compound | inhibition at 0.001 µM (Flpin-293-PDE4B2 cells; [1]) | inhibition at 0.01 µM (Flpin-293-PDE4B2 cells; [2]) | inhibition at 0.1 µM (Flpin-293-PDE4B2 cells; [3]) | also measured
Cn1cc2c(n1)CN(c1nc3c(c(NC4(CO)CCC4)n1)[S+]([O-])CC3)CC2 (centres unmarked) [Compound 30] | – | 11.3% | 48% | –
[O-][n+]1cc2c(c3ccc(Cl)cc31)CCN(c1nc3c(c(NC4(CO)CCC4)n1)[S+]([O-])CC3)C2 (centres unmarked) [Compound 106] | 0.41% | 21.2% | 67.5% | –
[O-][S+]1CCc2nc(N3CCc4cc(C(F)(F)F)ccc4C3)nc(NC3(CO)CCC3)c21 (centres unmarked) [Compound 52] | – | 81.8% | 99.5% | –
[O-][S+]1CCc2nc(N3CCc4cc(Cl)c(F)cc4C3)nc(NC3(CO)CCC3)c21 (centres unmarked) [Compound 96] | -2.7% | 15.7% | 84.8% | –
[O-][S+]1CCc2nc(N3CCc4cnc(Cl)cc4C3)nc(NC3(CO)CCC3)c21 (centres unmarked) [Compound 79] | 1.99% | 11.2% | 59.4% | –
COc1ccc2c(c1)OC[C@H]1CN(c3nc4c(c(NC5(CO)CCC5)n3)[S+]([O-])CC4)CC[C@H]21 (some centres unmarked) [Compound 110] | 19% | 76.1% | 100% | –
[O-][S+]1CCc2nc(N3CCc4ccc(Cl)cc4C3)nc(NC3(CO)CCC3)c21 (centres unmarked) [Compound 20] | – | 14.2% | 69.9% | –
CS(=O)(=O)c1ccc2c(c1)CCN(c1nc3c(c(NC4(CO)CCC4)n1)[S+]([O-])CC3)C2 (centres unmarked) [Compound 93] | 14% | 61% | 94.2% | –
C[C@H]1c2ccc(N3CCCC3)cc2CCN1c1nc2c(c(NC3(CO)CCCC3)n1)[S+]([O-])CC2 (some centres unmarked) [Compound 221] | 11.3% | 71.5% | 99.7% | –
[O-][S+]1CCc2nc(N3CC[C@@H]4c5ccc(C(F)(F)F)cc5OC[C@H]4C3)nc(NC3(CO)CCC3)c21 (some centres unmarked) [Compound 111] | 8.07% | 22.2% | 81.1% | –
C[C@H]1c2ccc(N3CCCC3)cc2CCN1c1nc2c(c(NCc3cnn(C)c3)n1)[S+]([O-])CC2 (some centres unmarked) [Compound 206] | 26.9% | 89.7% | 100% | –
C[C@H]1c2ccc(N3CCCC3)cc2CCN1c1nc2c(c(Nc3cn(C)nn3)n1)[S+]([O-])CC2 (some centres unmarked) [Compound 214] | 1.8% | 15.1% | 64.1% | –
Cn1nc(Cl)c2c3c(cnc21)CN(c1nc2c(c(NC4(CO)CCC4)n1)[S+]([O-])CC2)CC3 (centres unmarked) [Compound 105] | 7.53% | 42.5% | 93.5% | –
C[C@H]1CN(c2nc3c(c(NC4(CO)CCC4)n2)[S+]([O-])CC3)Cc2ccc(Cl)cc21 (some centres unmarked) [Compound 120] | 4.1% | 7.4% | 23.1% | IC50 (PDE4B2): 0.98 nM
C[C@H]1c2ccc(N3CCCC3)cc2CCN1c1nc2c(c(NC3(CO)CC3)n1)[S+]([O-])CC2 (some centres unmarked) [Compound 203] | 14.8% | 84.1% | 99.9% | –
[O-][S+]1CCc2nc(N3CCc4cc(Cl)ncc4C3)nc(NC3(CO)CCC3)c21 (centres unmarked) [Compound 78] | – | – | – | inhibition at 0.001 µM (Flpin-293-PDE4B2 cells; read-out: Cell Inhibition % @1 nM): 2.2%; inhibition at 0.01 µM (Flpin-293-PDE4B2 cells; read-out: Cell Inhibition % @10 nM): 32.1%; inhibition at 0.1 µM (Flpin-293-PDE4B2 cells; read-out: Cell Inhibition % @100 nM): 86.3%
